According to patent publication US8835644B2, “Broad spectrum benzothiophene-nitrothiazolide and other antimicrobials” (University of Virginia Patent Foundation, priority 2009, dated 2014):
≈ marks a conversion by molar mass, not a printed value. Like-named read-outs stand apart in the source and are kept apart here.

Assays:
H. pylori = test: MIC testing by broth dilution, H. pylori; assay type: cell-based, Helicobacter pylori
In short: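 Broth dilution MIC determination against H. pylori: a standard inoculum in 100 microliters of Brain Heart Infusion medium was placed in 96 well microplates. Test compounds began at 32 μg/ml in 200 microliters in well one and were serially diluted over a 32 to 0.06 range. After 24 h, plates were scored by eye and the first well without growth was recorded as the MIC.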

E. coli = test: MIC testing by broth dilution, E. coli plank; assay type: cell-based, Escherichia coli
In short: (§1)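 Media: LB (E. coli), Trypticase Soy (S. epidermidis), BHI (C. jejuni); plank cells. C. difficile on Wilkins Chalgrin agar, anaerobic Kirby-Bauer disks, zone vs NTZ zone ratio.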

S. epidermidis biofilm = S. epidermidis biofilm assay (activity tables); assay type: cell-based, Staphylococcus epidermidis
In short: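 Overnight TSB cultures diluted to OD600 0.01 and grown static with compound (triplicate) at 37° C for 16 h; turbidity recorded for growth. Biofilm: washed wells ethanol-fixed, stained with 0.5% crystal violet, A570 read before and after 95% ethanol extraction; mean ± SD.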

MRSA = test: MIC testing by broth dilution, MRSA; assay type: cell-based, Staphylococcus aureus
In short: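 Values are broth-dilution MICs, defined as the well showing no growth on visual reading after 24 h; the tested range was 32 to 0.06 μg/ml, in organism-specific media (LB, Trypticase Soy, Brain Heart Infusion). The C. difficile entries come instead from anaerobic Kirby-Bauer disk zones, normalised to NTZ.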

[1] = system: PFOR (pyruvate ferredoxin oxidoreductase); test: Direct PFOR enzyme assay; assay type: biochemical
Procedure: (§2) Representative compounds of the invention were tested in a series of assays against a series of organisms as described above. […] The organisms tested include, C. difficile, H. pylori, C. jejuni, MRSA, S. epidermidis, and E. coli. S. epidermidis and E. coli were tested in the plank and biofilm assay. A disk diffusion assay was also used for C. difficile. Direct PFOR enzyme assays were also performed. All analogues and derivatives were not tested on every organism in every type of assay (the “-” in each table means that it was not tested).

E. coli biofilm = E. coli biofilm assay (activity tables); assay type: cell-based, Escherichia coli
In short: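 After 24 h static culture at 37 °C in wells containing NTZ, strain 042 (1:100 inoculum) biofilm was quantified by 0.5% crystal violet absorbance at 570 nm. Planktonic growth was taken from turbidity or LB plate counts as cfu/ml; all runs triplicate, reported as mean and SD.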

S. epidermidis = test: MIC testing by broth dilution, S. epidermidis plank; assay type: cell-based, Staphylococcus epidermidis
In short: as §1

C. jejuni = test: MIC testing by broth dilution, C. jejuni; assay type: cell-based, Campylobacter jejuni
In short: as §1

C. difficile [2] = test: Disk diffusion (Kirby Bower), C. difficile; assay type: cell-based, Clostridium difficile; conditions: for Disk Diffusion (%) C. difficile: zone of inhibited growth as relative ratio to the zone for NTZ; for Disk Diff (%) C. difficile: Nitazoxanide = 100, Thiophene analogues table
In short: as §1

C. difficile [3] = test: MIC by agar dilution, C. difficile; assay type: cell-based, Clostridium difficile
Procedure: A standard broth dilution protocol was used in 96 well microplates containing a standard dilution of the microorganism to be tested in 100 microliters of the appropriate medium. Appropriate medium: E. coli, LB medium; Staphylococcus strains, Trypticase Soy; and for H. pylori and C. jejuni, Brain Heart Infusion. The compounds to be tested were set at 32 μg/ml in 200 microliters in well one and then serially diluted to provide a range from 32 to 0.06. The wells were scored visually at 24 h. The well where there was no growth was recorded as the MIC. […]
as §2

[4] = Helicobacter pylori, 24 h, read-out: MIC (μM) H. pylori
[5] = Escherichia coli, 24 h, read-out: MIC (μM) E. coli Plank
[6] = Staphylococcus aureus, MRSA, 24 h, read-out: MIC (μM) MRSA
[7] = Escherichia coli, read-out: MIC (μM) E. coli Biofilm
[8] = Campylobacter jejuni, 24 h, read-out: MIC (μM) C. jejuni
[9] = broth dilution, Brain Heart Infusion, 24 h, read-out: MIC (μM) H. pylori
[10] = broth dilution, LB medium, 24 h, read-out: MIC (μM) E. coli Plank
[11] = broth dilution, Trypticase Soy, 24 h, read-out: MIC (μM) MRSA
[12] = biofilm, read-out: MIC (μM) E. coli Biofilm
[13] = broth dilution, Trypticase Soy, 24 h, read-out: MIC (μM) S. epidermidis Plank
[14] = broth dilution, Brain Heart Infusion, 24 h, read-out: MIC (μM) C. jejuni
[15] = Helicobacter pylori, Thiophene analogues table, read-out: MIC H. pylori
[16] = Escherichia coli, planktonic, Thiophene analogues table, read-out: MIC E. coli Plank
[17] = Staphylococcus aureus, MRSA, Thiophene analogues table, read-out: MIC MRSA
[18] = Escherichia coli, biofilm, Thiophene analogues table, read-out: MIC E. coli Biofilm
[19] = Campylobacter jejuni, Thiophene analogues table, read-out: MIC C. jejuni
[20] = Clostridioides difficile, Thiophene analogues table, read-out: MIC C. difficile

In the case of `O=C(Nc1ncc([N+](=O)[O-])s1)c1cc(Br)c(Br)o1` [VPC161164], the MIC (H. pylori; Furan analogues table, read-out: MIC H. pylori) is reported as 2.8 µM (≈ 1.11 µg/mL), the MIC (E. coli; planktonic, Furan analogues table, read-out: MIC E. coli Plank) is reported as 60.5 µM (≈ 24 µg/mL) and the “MIC S. epidermidis Biofilm” value (S. epidermidis biofilm; Furan analogues table) is reported as 20.2 µM (≈ 8.02 µg/mL). The MIC (MRSA; Furan analogues table, read-out: MIC MRSA) was 3.8 µM (≈ 1.51 µg/mL), the “PFOR inhibition relative to nitazoxanide (=100)” value ([1]; Furan analogues table) was 56% and the MIC (E. coli biofilm; biofilm, Furan analogues table, read-out: MIC E. coli Biofilm) was 40.3 µM (≈ 16 µg/mL). For the same compound, the MIC (S. epidermidis; planktonic, Furan analogues table, read-out: MIC S. epidermidis Plank) was 15.1 µM (≈ 5.99 µg/mL) and the MIC (C. jejuni; Furan analogues table, read-out: MIC C. jejuni) was 20.2 µM (≈ 8.02 µg/mL).
For `O=C(Nc1ncc([N+](=O)[O-])s1)c1ccc(F)cc1` [VPC161167, 4-Fluoro-N-(5-nitrothiazol-2-yl)benzamide], the MIC (H. pylori; [4]) was 0.9 µM (≈ 0.241 µg/mL), the MIC (E. coli; [5]) was 120 µM (≈ 32 µg/mL) and the “MIC (μM) S. epidermidis Biofilm” value (S. epidermidis biofilm) was 29.9 µM (≈ 7.99 µg/mL). The MIC (MRSA; [6]) was 8.4 µM (≈ 2.24 µg/mL), the “PFOR inhibition relative to nitazoxanide (=100)” value [1] was 99% and the “Disk Diffusion (%) C. difficile” value (C. difficile [2]) was 89%. It also gave an MIC (E. coli biofilm; [7]) of 120 µM (≈ 32 µg/mL), an MIC (S. epidermidis; Staphylococcus epidermidis, 24 h, read-out: MIC (μM) S. epidermidis Plank) of 15 µM (≈ 4.01 µg/mL) and an MIC (C. jejuni; [8]) of 2.8 µM (≈ 0.748 µg/mL).
For `O=C(Nc1ncc([N+](=O)[O-])s1)c1ccc(C(=O)C(F)(F)F)cc1` [VPC161175], the MIC (H. pylori; [9]) was 4.3 µM (≈ 1.48 µg/mL), the MIC (E. coli; [10]) was 92.7 µM (≈ 32 µg/mL) and the “MIC (μM) S. epidermidis Biofilm” value (S. epidermidis biofilm) was 92.7 µM (≈ 32 µg/mL). It also gave an MIC (MRSA; [11]) of 92.7 µM (≈ 32 µg/mL), an MIC (E. coli biofilm; [12]) of 92.7 µM (≈ 32 µg/mL) and an MIC (S. epidermidis; [13]) of 92.7 µM (≈ 32 µg/mL). It also gave an MIC (C. jejuni; [14]) of 69.5 µM (≈ 24 µg/mL) and an MIC (C. difficile [3]; agar dilution, anaerobic, Wilkins Chalgrin agar, read-out: MIC (μM) C. difficile) of 23.2 µM (≈ 8.01 µg/mL).
With `O=C(Nc1ncc([N+](=O)[O-])s1)c1cc2ccccc2s1` [VPC161180] the MIC (H. pylori; Thiophene analogues table, read-out: MIC H. pylori) was 2.5 µM (≈ 0.763 µg/mL), the MIC (E. coli; planktonic, Thiophene analogues table, read-out: MIC E. coli Plank) was 104.8 µM (≈ 32 µg/mL) and the “MIC S. epidermidis Biofilm” value (S. epidermidis biofilm; Thiophene analogues table) was 19.7 µM (≈ 6.02 µg/mL). For the same compound, the MIC (MRSA; Thiophene analogues table, read-out: MIC MRSA) was 6.6 µM (≈ 2.02 µg/mL), the “Disk Diff (%) C. difficile” value (C. difficile [2]) was 81% and the MIC (E. coli biofilm; biofilm, Thiophene analogues table, read-out: MIC E. coli Biofilm) was 104.8 µM (≈ 32 µg/mL). It also gave an MIC (S. epidermidis; planktonic, Thiophene analogues table, read-out: MIC S. epidermidis Plank) of 13.1 µM (≈ 4 µg/mL), an MIC (C. jejuni; Thiophene analogues table, read-out: MIC C. jejuni) of 9.8 µM (≈ 2.99 µg/mL) and an MIC (C. difficile [3]; Thiophene analogues table, read-out: MIC C. difficile) of 13.1 µM (≈ 4 µg/mL).
In the case of `O=C(Nc1ncc([N+](=O)[O-])s1)c1sc2ccccc2c1Cl` [VPC161181], the MIC (H. pylori; [15]) is reported as 2.2 µM (≈ 0.748 µg/mL), the MIC (E. coli; [16]) is reported as 94.2 µM (≈ 32 µg/mL) and the “MIC S. epidermidis Biofilm” value (S. epidermidis biofilm; Thiophene analogues table) is reported as 11.8 µM (≈ 4.01 µg/mL). The MIC (MRSA; [17]) was 2.9 µM (≈ 0.985 µg/mL), the “Disk Diff (%) C. difficile” value (C. difficile [2]) was 72% and the MIC (E. coli biofilm; [18]) was 94.2 µM (≈ 32 µg/mL). The MIC (S. epidermidis; Staphylococcus epidermidis, planktonic, Thiophene analogues table, read-out: MIC S. epidermidis Plank) was 5.9 µM (≈ 2 µg/mL), the MIC (C. jejuni; [19]) was 5.9 µM (≈ 2 µg/mL) and the MIC (C. difficile [3]; [20]) was 11.8 µM (≈ 4.01 µg/mL).
For `O=C(Nc1ncc([N+](=O)[O-])s1)c1cccc(C(F)(F)F)c1` [VPC161183, N-(5-Nitrothiazol-2-yl)-3-(trifluoromethyl)benzamide], the MIC (H. pylori; [4]) was 3.5 µM (≈ 1.11 µg/mL), the MIC (E. coli; [5]) was 37.8 µM (≈ 12 µg/mL) and the “MIC (μM) S. epidermidis Biofilm” value (S. epidermidis biofilm) was 25.2 µM (≈ 7.99 µg/mL). The MIC (MRSA; [6]) was 3.2 µM (≈ 1.02 µg/mL), the “PFOR inhibition relative to nitazoxanide (=100)” value [1] was 87% and the “Disk Diffusion (%) C. difficile” value (C. difficile [2]) was 95 ± 2%. The MIC (E. coli biofilm; [7]) was 31.5 µM (≈ 9.99 µg/mL), the MIC (C. jejuni; [8]) was 4.7 µM (≈ 1.49 µg/mL) and the MIC (C. difficile [3]; Clostridioides difficile, read-out: MIC (μM) C. difficile) was 12.6 µM (≈ 4 µg/mL).
`O=C(Nc1ncc([N+](=O)[O-])s1)c1cccs1` [VPC161195, N-(5-Nitrothiazol-2-yl)thiophene-2-carboxamide] was tested, and the MIC (H. pylori; [15]) was 2.9 µM (≈ 0.74 µg/mL), the MIC (E. coli; [16]) was 125 µM (≈ 32 µg/mL) and the “MIC S. epidermidis Biofilm” value (S. epidermidis biofilm; Thiophene analogues table) was 62.7 µM (≈ 16 µg/mL). For the same compound, the MIC (MRSA; [17]) was 15.7 µM (≈ 4.01 µg/mL), the “PFOR inhibition relative to nitazoxanide (=100)” value ([1]; Thiophene analogues table) was 88% and the “Disk Diff (%) C. difficile” value (C. difficile [2]) was 97%. For the same compound, the MIC (E. coli biofilm; [18]) was 125 µM (≈ 32 µg/mL), the MIC (C. jejuni; [19]) was 2.9 µM (≈ 0.74 µg/mL) and the MIC (C. difficile [3]; [20]) was 31.3 µM (≈ 7.99 µg/mL).
In the case of `O=C(C=Cc1ccccc1)Nc1ncc([N+](=O)[O-])s1` [VPC161200], the MIC (H. pylori; [9]) is reported as 0.3 µM (≈ 0.0826 µg/mL), the MIC (E. coli; [10]) is reported as 116.2 µM (≈ 32 µg/mL) and the “MIC (μM) S. epidermidis Biofilm” value (S. epidermidis biofilm) is reported as 14.5 µM (≈ 3.99 µg/mL). For the same compound, the MIC (MRSA; [11]) was 116.2 µM (≈ 32 µg/mL), the “PFOR inhibition relative to nitazoxanide (=100)” value [1] was 93% and the MIC (E. coli biofilm; [12]) was 116.2 µM (≈ 32 µg/mL). The MIC (S. epidermidis; [13]) was 29.1 µM (≈ 8.01 µg/mL) and the MIC (C. jejuni; [14]) was 2.7 µM (≈ 0.743 µg/mL).
